target: T1, Human glycogen phosphorylase a (Homo sapiens, UniProt P06737); experiment: Glycogen phosphorylase a activity test (reverse direction, release of inorganic phosphate); type: biochemical; details: 10 μM concentration of the test substance; in vitro, duplicate determinations
T1 sequence (P06737 1-847): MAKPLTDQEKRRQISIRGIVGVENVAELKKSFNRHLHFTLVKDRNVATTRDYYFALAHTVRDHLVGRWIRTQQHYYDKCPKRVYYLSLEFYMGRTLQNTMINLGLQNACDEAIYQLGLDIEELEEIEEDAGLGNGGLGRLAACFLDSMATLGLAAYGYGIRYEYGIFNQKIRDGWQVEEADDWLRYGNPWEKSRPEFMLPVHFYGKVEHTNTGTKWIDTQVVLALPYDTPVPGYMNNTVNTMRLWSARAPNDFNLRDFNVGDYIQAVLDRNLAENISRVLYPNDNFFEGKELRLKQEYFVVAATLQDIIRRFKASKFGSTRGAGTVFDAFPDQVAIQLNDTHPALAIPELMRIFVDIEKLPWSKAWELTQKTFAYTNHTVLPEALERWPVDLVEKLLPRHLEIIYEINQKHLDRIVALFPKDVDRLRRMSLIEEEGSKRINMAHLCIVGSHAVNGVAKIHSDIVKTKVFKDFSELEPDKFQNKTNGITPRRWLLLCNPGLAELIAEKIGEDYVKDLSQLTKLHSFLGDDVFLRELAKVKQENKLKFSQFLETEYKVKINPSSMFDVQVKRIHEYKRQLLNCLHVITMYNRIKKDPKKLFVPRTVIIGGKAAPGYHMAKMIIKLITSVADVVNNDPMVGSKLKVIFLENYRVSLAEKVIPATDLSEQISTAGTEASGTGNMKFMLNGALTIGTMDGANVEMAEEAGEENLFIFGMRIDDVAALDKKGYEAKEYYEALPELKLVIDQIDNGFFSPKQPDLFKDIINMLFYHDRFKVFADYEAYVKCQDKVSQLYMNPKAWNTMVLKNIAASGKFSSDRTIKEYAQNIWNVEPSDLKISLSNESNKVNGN
Protocol: Glycogen Phosphorylase a Activity Test
The effect of compounds on the activity of the active form of glycogen phosphorylase (GPa) was measured in the reverse direction by monitoring the synthesis of glycogen from glucose 1-phosphate by determining the release of inorganic phosphate. All the reactions were carried out as duplicate determinations in 96-well microtiter plates (Half Area Plates, Costar No. 3696), with the change in absorption due to the formation of the reaction product being measured, at the wavelength specified below, in a Multiscan Ascent Elisa Reader (Lab Systems, Finland). In order to measure the enzymic activity of GPa in the reverse direction, the conversion of glucose 1-phosphate into glycogen and inorganic phosphate was measured in accordance with the general method of Engers et al. (Engers H D, Shechosky S, Madsen N B, Can J Biochem 1970 July;48(7): 746–754) but with the following modifications: Human glycogen phosphorylase a (for example containing 0.76 mg of protein/ml (Aventis Pharma Deutschland GmbH), dissolved in buffer solution E (25 mM β-glycerophosphate, pH 7.0, 1 mM EDTA and 1 mM dithiothreitol), was diluted with buffer T (50 mM Hepes, pH 7.0, 100 mM KCl, 2.5 mM EDTA, 2.5 mM MgCl2.6H2O), and addition of 5 mg of glycogen/ml, to a concentration of 10 μg of protein/ml. Test substances were prepared as a 10 mM solution in DMSO and diluted down to 50 μM with buffer solution T. 10 μl of 37.5 mM glucose, dissolved in buffer solution T and 5 mg/ml of glycogen, and also 10 μl of a solution of human glycogen phosphorylase a (10 μg of protein/ml) and 20 μl of glucose 1-phosphate, 2.5 mM, were added to […] of the solution. The basal value of the activity of the glycogen phosphorylase a in the absence of test substance was determined by adding 10 μl of buffer solution T (0.1% DMSO). The mixture was incubated at room temperature for 40 minutes and the inorganic phosphate which was released was measured using the general method of Drueckes et al. (Drueckes P, Schinzel R, Palm D, Anal Biochem 1995 Sep. 1;230(1):173–177) but with the following modifications: 50 μl of a stop solution of 7.3 mM ammonium molybdate, 10.9 mM zinc acetate, 3.6% ascorbic acid, 0.9% SDS are added to 50 μl of the enzyme mixture. After 60 minutes of incubation at 45° C., the absorption was measured at 820 nm. In order to determine the background absorption, the stop solution was added immediately after adding the glucose 1-phosphate solution in a separate assay. This test was carried out using a 10 μM concentration of the test substance in order to determine the respective inhibition of glycogen phosphorylase a by the test substance in vitro.

inhibition at 10 µM	Compound
101%	O=C(O)C=Cc1ccccc1NC(=O)NC(=O)c1cc(F)c(F)cc1Cl [Example 2, 3-{2-[3-(2-chloro-4,5-difluorobenzoyl)ureido]phenyl}acrylic acid]
95%	CC(=O)Nc1ccc(C=CC(=O)O)c(NC(=O)NC(=O)c2cc(F)c(F)cc2Cl)c1 [Example 3, 3-{4-Acetylamino-2-[3-(2-chloro-4,5-difluorobenzoyl)ureido]phenyl}acrylic acid]
96%	COC(=O)C=Cc1cc(C(=O)O)ccc1NC(=O)NC(=O)c1cc(F)c(F)cc1Cl [Example 7, 4-[3-(2-chloro-4,5-difluorobenzoyl)ureido]-3-(2-methoxycarbonylvinyl)benzoic acid]
91%	COC(=O)C=Cc1cc(C(=O)OC)ccc1NC(=O)NC(=O)c1cc(F)c(F)cc1Cl [Example 11, Methyl 4-[3-(2-chloro-4,5-difluorobenzoyl)ureido]-3-(2-methoxycarbonylvinyl)benzoate]

Reference: patent US7049341B2, “N-benzoylureidocinnamic acid derivatives, processes for preparing them and their use” (Aventis Pharma Deutschland GmbH, priority 2002, dated 2006)
